This note sets out measurements from patent US7423181B2, “Aminoalkoxy-functional chalcones” (Lica Pharmaceuticals A/S, priority 2002, dated 2008).

Structures are written as SMILES. pIC50: −log10 of the molar value. ≈ marks a conversion by molar mass, not a printed value.

Series [1] concerns dihydroorotate dehydrogenase (DHODH). Briefly: DHODH assay. Type of series: biochemical. The note with it: at 10 μM. Here is the method: 100 μl chalcone or 0.1 M Tris-HCl pH 8.0 is added to a well in a 96-wells microtiter plate. Then 50 μl enzyme dilution is added. The microtiter plate is placed in the Powerwavex340 and the enzymatic reactions starts when adding 100 μl assay mixture. The reaction are measured every 20 sec. for 10 min. The samples with chalcones are compared with the samples with 0.1 M Tris-HCl pH 8.0 and the percent inhibition is calculated.
Enzyme dilution: The solution of recombinant purified enzyme is dissolved in 0.1 M Tris-HCl pH 8 to give an initial velocity of 0.04-0.05 ΔA/min.
2,6-dichlorophenolindophenol (DCIP)-stock solution: 40 mg DCIP and 10 ml 99% Ethanol are mixed for 10 min at RT. Then 100 μl 1.0 M Tris-HCl pH 8 and miliQ H2O are added to a final volume of 100 ml. The A600 of the DCIP-stock solution are measured in a microtiter plate on the Powerwavex340 (Bio-Tek instruments,Inc.)
[…]: 25 mM dihydroorotate stock-solution is prepared by first dissolving in the same amount of mol NaOH and then miliQ H2O is added to the final volume.
Assay mix (10 ml solution): 600 μl of DHODH-stock solution and X ml (depending on the A600 value of stock-solution) DCIP to a final A600=2.5 are mixed. Then 0.1 M Tris-HCl pH 8.0 are added to a final volume of 10 ml.
Preparation of compound soluton: A 10 mM stock-solution of compound (e.g. a chalcone derivative) is made in dimethylsulfoxid (DMSO). The compound is then diluted in 0.1 M Tris-HCl pH 8 to the test concentrations. The final DMSO concentration in the sample is 10%

Series [2] relates to panel of 10 different non-fastidious bacteria. Briefly: Screening against panel of non-fastidious bacteria.
Series [3] can be described thus: Determination of solubility. Particulars: aqueous buffer at pH 7.4. It counts as physicochemical. The method, then: Determination of Solubility
Solubility of the compounds was determined by preparing a saturated solution of compound in 0.3 M phosphate buffer (pH 7.4±0.3) in a brown glass tube. The suspensions were rotated slowly for 24 hours. Aliquots were centrifuged for 10 minutes at 14.000 rpm and supernatants were diluted in 40% (v/v) acetonitrile in water prior to HPLC analysis. Concentrations of analytes were quantified against a standard curve and used as term of solubility. The HPLC-UV method used for the assessment of solubility is the same as used in the in vitro metabolism assay.

Another series relates to L. major promastigotes. Briefly: Leishmania promastigote assay. The note with it: for pIC50: L. major.
Series [4] is described as follows: Determination of metabolic stability (liver microsomes). It counts as in vitro ADME. The note with it: rat liver microsomes, 20 μM, 15 min. Here is the method:
Determination of Metabolic Stability
Incubations were performed with Wistar rat liver microsomes (0.25 mg/ml) in 2% sodium bicarbonate solution. NADP (0.13 mg/ml), glucose-6-phosphate (0.63 mg/ml) and glucose-6-phosphate dehydrogenase (0.38 units/ml) were used as NADPH generation system and UDPGA (0.48 mg/ml) was added to include the phase II reaction, glucuronic acid conjugation, in the assay. After 5 minutes of pre-incubation the reaction was started by addition of the test article to give a final concentration of 20 μM. Samples were incubated for 15 min at 37° C. and the reactions were terminated by addition of equal volumes of acetonitrile. Blank incubations were performed at the same concentration but without addition of microsomes. Both blank and microsome-containing samples were made in replicats of three. Prior to analysis samples were centrifuged for 10 min. at 3500 rpm,HPLC system:
Initial conditions were 40% mobile phase A (acetonitrile) and 60% mobile phase B (10 mM ammonium acetate pH 9.5). During the first 20 minutes, the mobile phase was changed via a linear gradient to 90% A and 10% B. This was followed by a 5 minutes linear gradient to initial conditions, which were maintained for 5 min. The flow rate was 0.20 m)/min and injection volume 10 μl.
Background: Liver microsomes are vesicles of endoplasmic reticulum, rich in cytochrome P450 enzymes.

Series [5] has as its system Plasmodium falciparum 3D7. Briefly: Plasmodium falciparum assay. The note with it: Plasmodium falciparum 3D7 (Table 2); read-out: IC50. Type of series: cell-based.
The test system of series [6] is Staphylococcus aureus ATCC33591(resistant to methicillin). Briefly: MIC determination in broth microdilution assay. Particulars: B: Staphylococcus aureus ATCC33591(resistant to methicillin).
In the next series the test system is Eschericia coli ESS. Briefly: MIC determination in broth microdilution assay. The note with it: for MIC: H: Eschericia coli ESS. On the technique in general: Broth dilution looks for growth in wells or tubes with falling amounts of substance.
Series [7] has as its system Enterococcus faecalis ATCC29212. Briefly: MIC determination in broth microdilution assay. The note with it: D: Enterococcus faecalis ATCC29212.
The subject of series [8] is Eschericia coli ATCC25922. Briefly: MIC determination in broth microdilution assay. The note with it: for MIC: G: Eschericia coli ATCC25922.
In series [9] the test system is Staphylococcus aureus ATCC29213. Briefly: MIC determination in broth microdilution assay. Particulars: A: Staphylococcus aureus ATCC29213.
Series [10] has as its system Enterococcus faecium #17501 (vancomycin-resistant clinical isolate). Briefly: MIC determination in broth microdilution assay. The note with it: E: Enterococcus faecium #17501 (vancomycin-resistant).
In series [11] the test system is Streptococcus pneumoniae #998 (clinical isolate). Briefly: MIC determination in broth microdilution assay. The note with it: F: Streptococcus pneumoniae #998.

For `COc1ccc(C(=O)/C=C/c2ccccc2)cc1` [4′MC, 4′-methoxy chalcone, reference compound], in series [1], the “Inhibition of DHODH” value is listed as 7%. For the same compound, in series [2], the antibacterial effect entry was “no antibacterial effect at all”.

Regarding `COc1ccc(C(=O)C=Cc2cc(-c3ccccc3Cl)ccc2OCCN(C)C)c(OC)c1OC` [Compound C018, (E)-3-[2′-Chloro-4-(2-dimethylamino-ethoxy)-biphenyl-3-yl]-1-(2,3,4-trimethoxy-phenyl)-propenone], the Solubility (commonly the dissolved amount per volume that the medium holds) in series [3] turned out to be 1500 µg/mL (≈ 3.02 mM).

With `COc1ccc(C(=O)/C=C/c2cc(-c3ccccc3C)ccc2OCCN(C)C)cc1` [Compound C019, (E)-3-[4-(2-Dimethylamino-ethoxy)-2′-methyl-biphenyl-3-yl]-1-(4-methoxy-phenyl)-propenone], the “Inhibition of DHODH” value in series [1] is given as 18%. The “times more potent than LicA” value with L. major promastigotes (dose-respons curve at Leishmania Major, FIG. 5) was 100 times.

Consider `COc1ccc(C(=O)/C=C/c2cc(-c3ccccc3C)ccc2OCCN(C)C)c(F)c1` [Compound C020, (E)-3-[4-(2-Dimethylamino-ethoxy)-2′-methyl-biphenyl-3-yl]-1-(2-fluoro-4-methoxy-phenyl)-propenone], for which the “Inhibition of DHODH” value in series [1] was 18%. In addition, the pIC50 (usually the negative decadic logarithm of the IC50, by convention in mol/L) in the series on L. major promastigotes is 7.52.

Take `COc1ccc(C(=O)/C=C/c2cc(-c3ccccc3C)ccc2OCCN(C)C)c(Cl)c1` [Compound C022, (E)-1-(2-Chloro-4-methoxy-phenyl)-3-[4-(2-dimethylamino-ethoxy)-2′-methyl-biphenyl-3-yl]-propenone]: in series [1], the “Inhibition of DHODH” value was determined as 21%.

Turning to `COc1ccc(C(=O)/C=C/c2cc(-c3cc(C)cc(C)c3)ccc2OCCN(C)C)c(F)c1` [Compound C024, (E)-3-[4-(2-Dimethylamino-ethoxy)-3′,5′-dimethyl-biphenyl-3-yl]-1-(2-fluoro-4-methoxy-phenyl)-propenone], the pIC50 in the series with L. major promastigotes was 7.40. Further, in series [4], the “Metabolic turn-over in vitro” value came out at 3%.

Take `CN(C)CCOc1ccc(C(C)(C)C)cc1/C=C/C(=O)c1ccccc1NS(=O)(=O)c1ccccc1` [Compound C027, N-(2-{3-[5-tert-Butyl-2-(2-dimethylamino-ethoxy)-phenyl]-(E)-acryloyl}-phenyl)-benzenesulfonamide]: the “Inhibition of DHODH” value in series [1] stood at 22%.

As to `COc1ccccc1-c1ccc(OCCN(C)C)c(/C=C/C(=O)c2ccccc2CN(C)C)c1` [Compound C036, (E)-3-[4-,(2-Dimethylamino-ethoxy)-2′-methoxy-biphenyl-3-yl]-1-(2-dimethylaminomethyl-phenyl)-propenone], in series [5], the negative logarithm of the IC50 (pIC50) is 6.70. This compound had a Solubility in series [3] of 1800 µg/mL (≈ 3.92 mM).

For the compound `CN(C)CCOc1ccc(-c2ccccc2)cc1/C=C/C(=O)c1cccc(CN(C)C)c1` [Compound C037, (E)-3-[4-(2-Dimethylamino-ethoxy)-biphenyl-3-yl]-1-(3-dimethylaminomethyl-phenyl)-propenone], in the series on L. major promastigotes, the pIC50 is 6.30. Further, in series [2] (Gram-positive pathogens), the “potency against Gram-positive pathogens in comparison with Licochalcone A” value is recorded as “increased potency”. In series [3], this compound registered a Solubility of 1500 µg/mL (≈ 3.5 mM).

Turning to `CN(C)CCCOc1cccc(/C=C/C(=O)c2ccccc2CN(C)C)c1` [Compound C071, (E)-1-(2-Dimethylaminomethyl-phenyl)-3-[3-(3-dimethylamino-propoxy)-phenyl]-propenone], the “Metabolic turn-over in vitro” value in series [4] came out at 3%.

For the compound `Cc1ccccc1-c1ccc(OCCN(C)C)c(CCC(=O)c2ccccc2CN(C)C)c1` [Compound C073, 3-[4-(2-Dimethylamino-ethoxy)-2′-methyl-biphenyl-3-yl]-1-(2-dimethylaminomethyl-phenyl)-propan-1-one], the solubility – broadly, the concentration that dissolves in the medium under given conditions – at 24 h in series [3] (0.3 M phosphate buffer, thermodynamic from solid) is above 10000 µg/mL.

As to `Cc1cc(C)cc(-c2ccc(OCCN(C)C)c(/C=C/C(=O)c3cccc(NCCN(C)C)c3)c2)c1` [Compound C075, (E)-3-[4-(2-Dimethylamino-ethoxy)-3′,5′-dimethyl-biphenyl-3-yl]-1-[3-(2-dimethylamino-ethylamino)-phenyl]-propenone], in [5], the pIC50 was 6.30. The MIC (usually the lowest concentration that inhibits growth of the organism) in [6] came out at 4.7 µM (≈ 2.28 µg/mL); with Eschericia coli ESS, 4.7 µM (≈ 2.28 µg/mL); in series [7] it was 9.4 µM (≈ 4.57 µg/mL); in series [8], 9.4 µM (≈ 4.57 µg/mL); in [9], 4.7 µM (≈ 2.28 µg/mL); in series [10], 9.4 µM (≈ 4.57 µg/mL). In addition, in the series on Eschericia coli ESS, the “activity against ESS strain of E.coli” value is “high activity”. Moreover, in series [4], the “Metabolic turn-over in vitro” value is 8%. The compound further showed a Solubility in series [3] of 4100 µg/mL (≈ 8.44 mM). Besides, in series [8], the “activity against E coli ATCC25922” value is listed as “high activity”.

For `Cc1cc(C)cc(-c2ccc(OCCN(C)C)c(/C=C/C(=O)c3cccc(CN(C)C)c3)c2)c1` [Compound C089, (E)-3-[4-(2-Dimethylamino-ethoxy)-3′,5′-dimethyl-biphenyl-3-yl]-1-(3-dimethylaminomethyl-phenyl)-propenone], the MIC in [6] came out at 9.4 µM (≈ 4.29 µg/mL); against Eschericia coli ESS, 4.7 µM (≈ 2.15 µg/mL); in [7], 9.4 µM (≈ 4.29 µg/mL); in series [8], 37.5 µM (≈ 17.1 µg/mL); in [9] it was 9.4 µM (≈ 4.29 µg/mL); in [10], 9.4 µM (≈ 4.29 µg/mL). The MIC in [11] was determined as 9.7 µM (≈ 4.43 µg/mL). Further, the “Metabolic turn-over in vitro” value in series [4] was found to be 9%.

Regarding `COc1ccc(C(=O)/C=C/c2cc(-c3cc(C)cc(C)c3)ccc2OCCN(C)C)c(CN(C)C)c1` [Compound C092, (E)-3-[4-(2-Dimethylamino-ethoxy)-3′,5′-dimethyl-biphenyl-3-yl]-1-(2-dimethylaminomethyl-4-methoxy-phenyl)-propenone], the MIC was 9.4 µM (≈ 4.57 µg/mL) in series [6]; 4.7 µM (≈ 2.29 µg/mL) against Eschericia coli ESS; 4.7 µM (≈ 2.29 µg/mL) in series [7]; 75 µM (≈ 36.5 µg/mL) in series [8]; 4.7 µM (≈ 2.29 µg/mL) in [9]; 4.7 µM (≈ 2.29 µg/mL) in [10]. In series [11], this compound showed an MIC of 4.7 µM (≈ 2.29 µg/mL). In addition, the “Metabolic turn-over in vitro” value in series [4] was 4%.

In the case of `Cc1ccccc1-c1ccc(OCCN(C)C)c(/C=C/C(=O)c2ccc(O)c(CN(C)C)c2)c1` [Compound C108, (E)-3-[4-(2-Dimethylamino-ethoxy)-2′-methyl-biphenyl-3-yl]-1-(3-dimethylaminomethyl-4-hydroxy-phenyl)-propenone], the Solubility in series [3] is 18100 µg/mL (≈ 39.5 mM).

`Cc1ccccc1-c1ccc(OCCN2CCCC2)c(/C=C/C(=O)c2ccccc2CN(C)C)c1` [Compound C136, (E)-1-(2-Dimethylaminomethyl-phenyl)-3-[2′-methyl-4-(2-pyrrolidin-1-yl-ethoxy)-biphenyl-3-yl]-propenone] displayed a Solubility in series [3] of 5500 µg/mL (≈ 11.7 mM).
